In the supplement of paper PMC11451515:

Test system: P12-Ichikawa
Assay: cell viability relative to DMSO control; higher = less cytotoxic
Conditions: 48 h
How it was run: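 Viability, reported as a per-plate percentage of DMSO wells with cell-free wells as background, came from CellTiter-Glo One luminescence. Reading took place after 48 h at 37°C. Before that, NOMO1 or SEM (500 cells/well) or P12-Ichikawa (1000 cells/well) leukemia cells, adapted for at least four passages in each medium, were seeded in 1536-well plates (5 μl) and pin-dosed with library compounds in DMSO, 47 μM to 0.79 nM over 11 threefold points.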

[1] = HPLM + 10% dialyzed FBS, 0.000781 µM
[2] = HPLM + 10% dialyzed FBS, 0.00234 µM
[3] = HPLM + 10% dialyzed FBS, 0.00702 µM
[4] = HPLM + 10% dialyzed FBS, 0.0211 µM
[5] = HPLM + 10% dialyzed FBS, 0.0632 µM
[6] = HPLM + 10% dialyzed FBS, 0.19 µM
[7] = HPLM + 10% dialyzed FBS, 0.569 µM
[8] = HPLM + 10% dialyzed FBS, 1.71 µM
[9] = HPLM + 10% dialyzed FBS, 5.12 µM
[10] = HPLM + 10% dialyzed FBS, 15.4 µM
[11] = HPLM + 10% dialyzed FBS, 46.1 µM
[12] = RPMI 5 mM glucose + 10% FBS, 0.000781 µM
[13] = RPMI 5 mM glucose + 10% FBS, 0.00234 µM
[14] = RPMI 5 mM glucose + 10% FBS, 0.00702 µM
[15] = RPMI 5 mM glucose + 10% FBS, 0.0211 µM
[16] = RPMI 5 mM glucose + 10% FBS, 0.0632 µM
[17] = RPMI 5 mM glucose + 10% FBS, 0.19 µM
[18] = RPMI 5 mM glucose + 10% FBS, 0.569 µM
[19] = RPMI 5 mM glucose + 10% FBS, 1.71 µM
[20] = RPMI 5 mM glucose + 10% FBS, 5.12 µM
[21] = RPMI 5 mM glucose + 10% FBS, 15.4 µM
[22] = RPMI 5 mM glucose + 10% FBS, 46.1 µM
[23] = RPMI 5 mM glucose + 10% dialyzed FBS, 0.000781 µM
[24] = RPMI 5 mM glucose + 10% dialyzed FBS, 0.00234 µM
[25] = RPMI 5 mM glucose + 10% dialyzed FBS, 0.00702 µM
[26] = RPMI 5 mM glucose + 10% dialyzed FBS, 0.0211 µM
[27] = RPMI 5 mM glucose + 10% dialyzed FBS, 0.0632 µM
[28] = RPMI 5 mM glucose + 10% dialyzed FBS, 0.19 µM
[29] = RPMI 5 mM glucose + 10% dialyzed FBS, 0.569 µM
[30] = RPMI 5 mM glucose + 10% dialyzed FBS, 1.71 µM
[31] = RPMI 5 mM glucose + 10% dialyzed FBS, 5.12 µM
[32] = RPMI 5 mM glucose + 10% dialyzed FBS, 15.4 µM
[33] = RPMI 5 mM glucose + 10% dialyzed FBS, 46.1 µM

CN(C)C/C=C/C(=O)Nc1ccc(C(=O)Nc2cccc(Nc3ncc(Cl)c(-c4c[nH]c5ccccc45)n3)c2)cc1
cell viability [1]: 81.9% | cell viability [2]: 85.6% | cell viability [3]: 85.8% | cell viability [4]: 94.8% | cell viability [5]: 82.5% | cell viability [6]: 78.6% | cell viability [7]: 17.3% | cell viability [8]: 10.2% | cell viability [9]: 4.95% | cell viability [10]: 3.8% | cell viability [11]: 3.94% | cell viability [12]: 78% | cell viability [13]: 85.3% | cell viability [14]: 84.2% | cell viability [15]: 89% | cell viability [16]: 92.9% | cell viability [17]: 77.1% | cell viability [18]: 12.3% | cell viability [19]: 6.62% | cell viability [20]: 3.34% | cell viability [21]: 2.59% | cell viability [22]: 3.22% | cell viability [23]: 79.7% | cell viability [24]: 82.9% | cell viability [25]: 93% | cell viability [26]: 97% | cell viability [27]: 93.2% | cell viability [28]: 77.6% | cell viability [29]: 17.9% | cell viability [30]: 11.6% | cell viability [31]: 5.08% | cell viability [32]: 2.82% | cell viability [33]: 3.14%

Cc1cc(Nc2ncc3c(n2)N(C)C(=O)N(c2cc(NC(=O)c4cccc(C(F)(F)F)c4)ccc2C)C3)n(C)n1
cell viability [1]: 116% | cell viability [2]: 114% | cell viability [3]: 117% | cell viability [4]: 120% | cell viability [5]: 119% | cell viability [6]: 120% | cell viability [7]: 114% | cell viability [8]: 90.4% | cell viability [9]: 79.3% | cell viability [10]: 55.8% | cell viability [11]: 7.23% | cell viability [12]: 106% | cell viability [13]: 120% | cell viability [14]: 124% | cell viability [15]: 123% | cell viability [16]: 133% | cell viability [17]: 115% | cell viability [18]: 105% | cell viability [19]: 73.5% | cell viability [20]: 66.5% | cell viability [21]: 52.5% | cell viability [22]: 5.53% | cell viability [23]: 111% | cell viability [24]: 119% | cell viability [25]: 116% | cell viability [26]: 132% | cell viability [27]: 124% | cell viability [28]: 122% | cell viability [29]: 111% | cell viability [30]: 76.1% | cell viability [31]: 72.1% | cell viability [32]: 50.9% | cell viability [33]: 5.1%

C[S+](=O)([O-])Oc1ccc2c(NC(N)=O)c(C(=O)c3ccc(Cl)cc3Cl)oc2c1
cell viability [1]: 113% | cell viability [2]: 120% | cell viability [3]: 122% | cell viability [4]: 116% | cell viability [5]: 120% | cell viability [6]: 113% | cell viability [7]: 122% | cell viability [8]: 119% | cell viability [9]: 108% | cell viability [10]: 99.9% | cell viability [11]: 66.5% | cell viability [12]: 112% | cell viability [13]: 109% | cell viability [14]: 121% | cell viability [15]: 117% | cell viability [16]: 130% | cell viability [17]: 116% | cell viability [18]: 123% | cell viability [19]: 125% | cell viability [20]: 129% | cell viability [21]: 109% | cell viability [22]: 73.3% | cell viability [23]: 116% | cell viability [24]: 118% | cell viability [25]: 112% | cell viability [26]: 110% | cell viability [27]: 117% | cell viability [28]: 122% | cell viability [29]: 122% | cell viability [30]: 126% | cell viability [31]: 118% | cell viability [32]: 105% | cell viability [33]: 91.5%
